Values quoted from earlier work, collected in patent US11583508B2, “Use of mitoxantrone liposome for treating non-Hodgkin's lymphoma” (CSPC ZHONGQI PHARMACEUTICAL TECHNOLOGY (SHIJIAZHUANG) CO., …, priority 2018, dated 2023).

System: relapsed/refractory PTCL (RR-PTCL)
Conditions: monotherapy, second-line

SMILES | Primary endpoint: (ORR, %) [%]
O=C(/C=C/c1cccc(S(=O)(=O)Nc2ccccc2)c1)NO [Belinostat] | 25.8
C#CCC(Cc1cnc2nc(N)nc(N)c2n1)c1ccc(C(=O)N[C@@H](CCC(=O)O)C(=O)O)cc1 (some centres unmarked) [Pralatrexate] | 27
